This experiment deals with T1, HA-DOPr (HA-tagged δ opioid receptor) (Homo sapiens, UniProt P41143).
T1 construct: gene OPRD1; full-length wild type, HA-tagged
In words: [3H]-diprenorphine competition, HEK293 membranes. Type of experiment: binding. To be noted: read-out: [^3H]-Diprenorphine / pKi (converted). The text has this: [3H]-diprenorphine competition, HEK293 membranes on HA-DOPr (HA-tagged δ opioid receptor)

T1 sequence (P41143 whole entry, looked up): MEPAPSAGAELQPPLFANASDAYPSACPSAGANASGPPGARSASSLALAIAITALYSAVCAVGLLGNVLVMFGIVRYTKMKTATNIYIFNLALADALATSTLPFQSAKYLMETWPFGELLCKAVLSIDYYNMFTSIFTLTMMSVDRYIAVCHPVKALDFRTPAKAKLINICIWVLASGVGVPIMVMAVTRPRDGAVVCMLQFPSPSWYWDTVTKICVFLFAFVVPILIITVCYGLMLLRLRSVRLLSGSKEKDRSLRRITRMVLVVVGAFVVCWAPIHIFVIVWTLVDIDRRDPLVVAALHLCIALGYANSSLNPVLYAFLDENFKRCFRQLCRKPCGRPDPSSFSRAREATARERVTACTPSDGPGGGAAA

For the compound `CN(C)C(=O)c1ccc(C(=C2CCN(Cc3cncs3)CC2)c2cccc(C(N)=O)c2)cc1` [PN6047, 3-[[4-(dimethylcarbamoyl)phenyl]-[1-(thiazol-5-ylmethyl)-4-piperidylidene]methyl]benzamide], the Ki is 56.2 nM.
